“Also recorded” adds a separate entry of the source.
Tests used:
CD81-LEL = biological target: T1, CD81-LEL (Homo sapiens, UniProt P60033); assay: Surface plasmon resonance binding of ligands to immobilized CD81-LEL; settings: for Binding (change in response units): 3 min association; for Dissociation 1 (change in response units) / Dissociation 2 (change in response units): dissociation interval
T1 construct: A recombinant form of the CD81-LEL protein with a GST tag; gift of Dr. Shoshana Levy, Stanford University
T1 sequence (P60033 113-201 limits assumed): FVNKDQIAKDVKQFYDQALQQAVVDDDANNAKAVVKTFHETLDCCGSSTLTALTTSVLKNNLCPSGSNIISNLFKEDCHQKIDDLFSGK
Protocol: SPR analysis was performed using a Biacore T200 workstation (GE Healthcare, NJ, USA). A recombinant form of the CD81-LEL protein with a GST tag (generously provided by Dr. Shoshana Levy, Stanford University) was used to confirm, using an established experimental technique, the binding of several ligands to the protein. Briefly, 10 μM CD81-LEL-GST diluted into 10 mM Na-Acetate buffer pH 4.5 was immobilized for 15 min at a flow speed of 5 μl/min onto a CM5 sensor chip using amine-coupling (EDC-NHS), Approximately 20,000 RU of protein were immobilized on the chip. The ligands were prepared as 600 μM solutions in PBS-0.05% Tween-80 (the running buffer) and they were introduced to the protein using a pre-programmed 3 minute association and 1 minute dissociation interval.
SPR analysis was performed using a Biacore T100 workstation (GE Healthcare, NJ, USA). […] Approximately 20,000 RU of protein were immobilized on the chip. The ligands were prepared as 200 uM solutions in PBS-1% DMSO (the running buffer) and they were introduced to the protein using a pre-programmed 3 min association and 1 min dissociation interval.

[1] = biological target: T2, native CD81 on Raji cells (Homo sapiens, UniProt P60033); assay: Antibody neutralizing assay: inhibition of JS-81 anti-CD81 antibody binding on Raji cells (FACS); format: cell-based; settings: for inhibition at 50 µM / inhibition at 100 µM / inhibition at 400 µM / Inhibition of JS-81 Binding (%): Raji cells; for inhibition at 50 µM / inhibition at 100 µM / inhibition at 400 µM: read-out: Inhibition of JS-81 Binding (%); for inhibition of anti-CD81 binding (in words): 100 uM and 400 uM
T2 construct: endogenous in cells; host or cells: Raji cells (human B cell line)
T2 sequence (P60033 1-236): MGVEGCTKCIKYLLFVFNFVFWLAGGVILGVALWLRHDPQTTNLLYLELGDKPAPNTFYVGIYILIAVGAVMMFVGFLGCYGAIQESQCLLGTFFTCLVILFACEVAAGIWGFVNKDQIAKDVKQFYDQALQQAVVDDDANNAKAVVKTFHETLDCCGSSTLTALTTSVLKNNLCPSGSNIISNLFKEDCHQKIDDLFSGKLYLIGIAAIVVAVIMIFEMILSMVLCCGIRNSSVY
Protocol: For antibody neutralization assay Raji cells were used, a human B cell line that expressed high amounts of CD81 on the surface (data not shown), Cells were grown in RPMI medium (10% FCS, 1% penicillin/streptomycin, 1% L-glutamine, 1% non-essential amino acids, 1% sodium pyruvate, pH 7.4, at 37° C. with 5% CO2). 2×10^5 cells were incubated with or without different concentrations (50 μM, 100 μM, 400 μM and 1 mM) of indicated inhibitor for 20 min at room temperature, subsequently 1 ul (16 ng/μl) of FITC-labeled anti CD81 antibody (BD Pharmingen, 551108) was added to the cells and incubated for 20 min (antibody titration was performed to obtain a working dilution range, data not shown). Cells were washed and analyzed by FACS (BD FACSCalibur, software: Cell Quest Pro). Mean Fluorescence Intensity MFI was calculated using Flowjo software (TreesStar, www.flowjo.com).

Plasmodium yoelii [2] = assay: Sporozoite development assay, P. yoelii in HepG2-CD81 cells; format: cell-based; settings: for Percent Infection: HepG2-CD81, Plasmodium yoelii, 400 uM compound
Protocol: (§1) Anopheles stephensi mosquitoes were fed on mice infected with Plasmodium yoelii 17XNL parasites. On day 14 post bloodmeal, salivary glands were harvested, homogenized, sporozoite number was determined using a hemocytometer and the indicated number of sporozoites was added to cell monolayers, Plasmodium falciparum sporozoites were generated by membrane feeding An. stephensi mosquitoes using gametocyte cultures generated in vitro.
(§2) HepG2-CD81 (14) cells were maintained in DMEM supplemented with 10% fetal calf serum and 1 mM glutamine (DMEM/FCS), mAb 2E6 was used for development assays and is directed against Plasmodium Hsp 70 (15) and mAb 2A10 is directed against the repeat region of P. falciparum CSP and was used for invasion assays.
(§3) 5×10^5 HepG2-CD81 cells were plated on collagen coated Lab-Tek wells and allowed to adhere overnight. The following day, cells were preincubated with 400 uM of compound for 30 minutes at 37° C. Controls were pre-incubated with DMSO at the same concentration in which it was found in the compound solutions. 10^5 sporozoites were added to each well and in the case of P. falciparum, incubated for 1.5 hours and scored for invasion whereas in the case of P. yoelii, incubated for 44 hours and scored for exoerythrocytic stages.

Plasmodium yoelii [3] = assay: Sporozoite infection assay, P. yoelii in Hepa1-6 cells; format: cell-based; settings: for Percent Infection: Hepa1-6 Cells, Plasmodium yoelii
Plasmodium falciparum = assay: Sporozoite invasion assay, P. falciparum in HepG2-CD81 cells; format: cell-based; settings: for Percent Infection: HepG2-CD81, Plasmodium falciparum, 400 uM compound
Protocol: as §1, §2, §3

Plasmodium berghei = assay: Sporozoite infection assay, P. berghei in Hepa1-6 cells; format: cell-based; settings: for Percent Infection: Hepa1-6 Cells, Plasmodium berghei; for effect on infection (in words): Hepa1-6 cells

Binding (change in response units) (CD81-LEL; SPR) [response units] | Dissociation 1 (change in response units) (CD81-LEL; SPR) [response units] | Dissociation 2 (change in response units) (CD81-LEL; SPR) [response units] | inhibition at 50 µM ([1]; 50 μM ligand) [%] | inhibition at 100 µM ([1]; 100 μM ligand) [%] | inhibition at 400 µM ([1]; 400 μM ligand) [%] | Inhibition of JS-81 Binding (%) ([1]; 50 μM ligand) | Inhibition of JS-81 Binding (%) ([1]; 100 μM ligand) | Inhibition of JS-81 Binding (%) ([1]; 400 μM ligand) | SMILES | also measured
38.6 | 26.8 | 21.8 | 0 | 0 | 14 | – | – | – | O=C(O)c1cc2cc(OCc3ccccc3)ccc2[nH]1 [Ligand 30930, 5-phenylmethoxy-1H-indole-2-carboxylic acid] | –
−1.7 | 13.1 | 5.6 | 0 | 0 | 24 | – | – | – | Cc1cc(C)c(N)c(C(=O)O)c1 [Ligand 90444, 2-amino-3,5-dimethylbenzoate] | Percent Infection (Plasmodium yoelii [2]): 44.3%; effect on infection (in words) (Plasmodium yoelii [2]; P. yoelii, HepG2-CD81): inhibit; also recorded: inhibitory effect; Percent Infection (Plasmodium yoelii [3]): 222%; effect on infection (in words) (Plasmodium yoelii [3]; P. yoelii, Hepa1-6 cells): didn't inhibit; Percent Infection (Plasmodium falciparum): 98.7%; Percent Infection (Plasmodium berghei): 95.6%; effect on infection (in words) (Plasmodium berghei; P. berghei): didn't inhibit
– | – | – | 0 | 0 | 24 | – | – | – | COc1cc(-c2ccc(Nc3ccccc3C(=O)O)c(OC)c2)ccc1Nc1ccccc1C(=O)O [Ligand 73735, 2-[4-[4-(2-carboxylatoanilino)-3-methoxyphenyl]-2-methoxyanilino]benzoate] | binding to CD81 by SPR (in words) (CD81-LEL): bind to CD81-LEL; Percent Infection (Plasmodium yoelii [2]): 23%; effect on infection (in words) (Plasmodium yoelii [2]; P. yoelii, HepG2-CD81): inhibit; also recorded: inhibitory effect; percentage of infection inhibition (Plasmodium yoelii [2]; P. yoelii, HepG2-CD81): 77%; Percent Infection (Plasmodium yoelii [3]): 38.3%; percentage of infection inhibition (Plasmodium yoelii [3]; P. yoelii, Hepa1-6): 61.7%; Percent Infection (Plasmodium falciparum): 3.2%; effect on infection (in words) (Plasmodium falciparum; P. falciparum): inhibit the infection; percentage of infection inhibition (Plasmodium falciparum; P. falciparum, HepG2-CD81): 96.8%; inhibition of anti-CD81 binding (in words) [1]: inhibit anti-CD81 binding to CD81-LEL in a dose dependent manner; Percent Infection (Plasmodium berghei): 17.7%; percentage of infection inhibition (Plasmodium berghei; P. berghei, Hepa1-6): 82.3%; effect on infection (in words) (Plasmodium berghei; P. berghei): Inhibition
– | – | – | – | – | – | 0 | 0 | 52 | CNC1(C(N)=O)CCNCC1 [Ligand 75846] | –
– | – | – | – | – | – | 0 | 0 | 17 | O=C(O)c1ccc(N2CCCCC2)cc1O [Ligand 23895] | –
– | – | – | – | – | – | 0 | 54 | 12 | O=C(O)/C=C/C(=O)Nc1cccc2cccnc12 [Ligand 144958] | –
– | – | – | – | – | – | 0 | 6 | 26 | NS(=O)(=O)c1ccc(N=Nc2c(O)c(C(=O)O)cc3ccccc23)cc1 [Ligand 134137] | –
6.7 | 16.8 | 7.9 | 0 | 0 | 16 | – | – | – | O=C(Cn1ccc(=O)[nH]c1=O)Nc1ccc(C(=O)O)c(O)c1 [Ligand 93033, 4-[[2-(2,4-dioxopyrimidin-1-yl)acetyl]amino]-2-hydroxybenzoate] | binding-dissociation behavior (in words) (CD81-LEL; SPR): comparable binding and dissociation
– | – | – | – | – | – | – | – | – | CSc1ccc2c(c1)C(N1CCN(C)CC1)Cc1ccccc1S2 (centres unmarked) [Ligand 281816] | binding to CD81 by SPR (in words) (CD81-LEL): bind to CD81-LEL; inhibition of anti-CD81 binding (in words) [1]: inhibit anti-CD81 binding to CD81-LEL in a dose dependent manner
